Results reported in ChEMBL document CHEMBL5620353, “Novel antifungal triazoles with alkynyl-methoxyl side chains: Design, synthesis, and biological activity evaluation” (Eur J Med Chem, 2023).
Converted amounts (≈) assume the structure as drawn. The source made the active and inactive calls. No cut-off for these calls is given here.

Legend:
[1] = test system: Saccharomyces cerevisiae; experiment: Antifungal activity against recombinant Saccharomyces cerevisiae Y2301 overexpressing ScErg11 Y140F assessed as inhibition of fungal growth incubated for 48 hrs by microbroth dilution method; format: functional
[2] = test system: Candida albicans; experiment: Antifungal activity against Candida albicans SC5314 assessed as inhibition of fungal growth at 4 ug/ml measured after 12 hrs by optical density based method; format: functional, organism-based; details: dose 4.0 µg/ml
[3] = test system: [Candida] auris; experiment: Antifungal activity against fluconazole-resistant Candida auris 918 assessed as inhibition of fungal growth incubated for 48 hrs by microbroth dilution method; format: functional; details: Candidozyma auris
[4] = test system: Saccharomyces cerevisiae; experiment: Antifungal activity against recombinant Saccharomyces cerevisiae Y2462 overexpressing ScErg11 ScNcp1 assessed as inhibition of fungal growth incubated for 48 hrs by microbroth dilution method; format: functional
[5] = test system: Candida albicans; experiment: Antifungal activity against fluconazole-resistant Candida albicans 901 assessed as inhibition of fungal growth incubated for 48 hrs by microbroth dilution method; format: functional
[6] = test system: Saccharomyces cerevisiae; experiment: Antifungal activity against recombinant Saccharomyces cerevisiae Y2374 overexpressing CgErg11 assessed as inhibition of fungal growth incubated for 48 hrs by microbroth dilution method; format: functional
[7] = test system: Cryptococcus neoformans; experiment: Antifungal activity against Cryptococcus neoformans 32,609 assessed as inhibition of fungal growth at 0.5 ug/ml incubated for 48 hrs by spot assay; format: functional, organism-based; details: dose 0.5 µg/ml
[8] = test system: Candida albicans; experiment: Antifungal activity against Candida albicans SC5314 assessed as inhibition of fungal growth at 0.5 ug/ml incubated for 48 hrs by spot assay; format: functional, organism-based; details: dose 0.5 µg/ml
[9] = test system: Candida albicans; experiment: Antifungal activity against fluconazole-resistant Candida albicans 904 assessed as inhibition of fungal growth incubated for 48 hrs by microbroth dilution method; format: functional
[10] = test system: Saccharomyces cerevisiae; experiment: Antifungal activity against recombinant Saccharomyces cerevisiae Y2716 overexpressing CpErg11 Y132F CpCpr assessed as inhibition of fungal growth incubated for 48 hrs by microbroth dilution method; format: functional
[11] = test system: Candida albicans; experiment: Antifungal activity against Candida albicans SC5314 infected in Galleria mellonella larvae assessed as median survival time at 8 mg/kg measured after 10 days post inoculation; format: functional; details: time 10 day
[12] = target: Lanosterol 14-alpha demethylase (Candida albicans (strain SC5314 / ATCC MYA-2876) (Yeast), UniProt P10613); experiment: Inhibition of Lanosterol 14-alpha demethylase in Candida albicans SC5314 assessed as reduction in ergosterol level at 8 ug/ml incubated for 8 hrs by GC-MS analysis relative to control; details: at 8 µg/mL
Lanosterol 14-alpha demethylase, sequence (P10613 whole entry): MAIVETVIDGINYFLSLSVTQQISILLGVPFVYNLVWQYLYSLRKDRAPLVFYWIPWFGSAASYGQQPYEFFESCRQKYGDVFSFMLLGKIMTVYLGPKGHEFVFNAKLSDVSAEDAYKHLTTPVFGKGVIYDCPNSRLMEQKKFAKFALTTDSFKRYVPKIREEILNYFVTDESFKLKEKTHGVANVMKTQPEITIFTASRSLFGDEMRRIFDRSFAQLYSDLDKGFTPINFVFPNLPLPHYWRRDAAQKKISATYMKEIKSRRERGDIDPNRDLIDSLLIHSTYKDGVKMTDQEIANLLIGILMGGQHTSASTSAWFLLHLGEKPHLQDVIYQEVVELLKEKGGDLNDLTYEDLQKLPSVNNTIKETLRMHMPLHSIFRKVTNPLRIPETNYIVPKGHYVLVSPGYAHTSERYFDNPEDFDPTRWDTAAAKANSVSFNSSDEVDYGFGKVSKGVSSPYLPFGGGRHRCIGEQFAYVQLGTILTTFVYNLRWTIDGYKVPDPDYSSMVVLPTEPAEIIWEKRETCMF

[13] = test system: Saccharomyces cerevisiae; experiment: Antifungal activity against recombinant Saccharomyces cerevisiae Y525 overexpressing CaMdr1 assessed as inhibition of fungal growth incubated for 48 hrs by microbroth dilution method; format: functional
[14] = test system: Nakaseomyces glabratus; experiment: Antifungal activity against Candida glabrata 537 assessed as inhibition of fungal growth incubated for 48 hrs by microbroth dilution method; format: functional
[15] = test system: Aspergillus fumigatus; experiment: Antifungal activity against Aspergillus fumigatus 7544 assessed as inhibition of fungal growth incubated for 72 hrs by microbroth dilution method; format: functional
[16] = Cytotoxicity against HUVEC cells assessed as cell survival at 128 ug/ml incubated for 24 hrs by CCK-8 assay relative to control; format: toxicity, cell-based; details: human, at 128 µg/mL, read-out: Survival
[17] = test system: Candida albicans; experiment: Antifungal activity against Candida albicans 904 assessed as reduction in fungal growth and viability at 2 ug/ml incubated for 48 hrs by spot assay; format: functional, organism-based; details: dose 2.0 µg/ml
[18] = test system: Candida albicans; experiment: Inhibition of biofilm formation in Candida albicans SC5314 at 64 ug/ml incubated for 24 hrs by XTT reduction assay relative to control; format: functional
[19] = test system: Saccharomyces cerevisiae; experiment: Antifungal activity against recombinant Saccharomyces cerevisiae Y2721 overexpressing CpErg11 CpCpr assessed as inhibition of fungal growth incubated for 48 hrs by microbroth dilution method; format: functional
[20] = Selectivity index, ratio of IC50 for HUVEC cells to MIC for Candida albicans SC5314; format: toxicity; details: human, HUVEC cells versus Candida albicans SC5314; read-out: Selectivity Index
[21] = test system: Candida albicans; experiment: Antifungal activity against Candida albicans SC5314 assessed as reduction in fungal growth and viability at 2 ug/ml incubated for 48 hrs by spot assay; format: functional, organism-based; details: dose 2.0 µg/ml
[22] = test system: Candida albicans; experiment: Antifungal activity against Candida albicans assessed as reduction in hyphal length at 16 ug/ml; format: functional, organism-based; details: dose 16.0 µg/ml
[23] = test system: Saccharomyces cerevisiae; experiment: Antifungal activity against recombinant Saccharomyces cerevisiae Y2513 overexpressing ScErg11 Y140H assessed as inhibition of fungal growth incubated for 48 hrs by microbroth dilution method; format: functional
[24] = test system: Candida albicans; experiment: Antifungal activity against Candida albicans SC5314 infected in Galleria mellonella larvae assessed as larval survival rate at 8 mg/kg measured after 10 days post inoculation relative to control; format: functional; details: SC5314, 240 h, time 10 day
[25] = test system: Candida albicans; experiment: Antibiofilm activity against Candida albicans SC5314 preformed biofilms at 16 ug/ml incubated for 24 hrs by XTT reduction assay relative to control; format: functional; set-up: scale not given: the % may be the effect or the level left; details: dose 16 µg/ml
[26] = test system: Saccharomyces cerevisiae; experiment: Antifungal activity against recombinant Saccharomyces cerevisiae Y570 overexpressing CaCdr1 assessed as inhibition of fungal growth incubated for 48 hrs by microbroth dilution method; format: functional
[27] = test system: Candida albicans; experiment: Antifungal activity against Candida albicans SC5314 infected in Galleria mellonella larvae assessed as delay in time of larval death at 8 mg/kg measured after 10 days post inoculation; format: functional, organism-based; details: time 10.0 day
[28] = test system: [Candida] auris; experiment: Antifungal activity against fluconazole-resistant Candida auris 919 assessed as inhibition of fungal growth incubated for 48 hrs by microbroth dilution method; format: functional; details: Candidozyma auris
[29] = test system: Saccharomyces cerevisiae; experiment: Antifungal activity against recombinant Saccharomyces cerevisiae Y2411 overexpressing ScErg11 assessed as inhibition of fungal growth incubated for 48 hrs by microbroth dilution method; format: functional
[30] = test system: Candida albicans; experiment: Antifungal activity against Candida albicans SC5314 infected in Galleria mellonella larvae assessed as protection against fungal infection at 2 mg/kg measured after 10 days post inoculation; format: functional, organism-based; details: time 10.0 day
[31] = test system: Candida albicans; experiment: Antifungal activity against Candida albicans assessed as increase in pseudohyphae at 16 ug/ml; format: functional, organism-based; details: dose 16.0 µg/ml
[32] = test system: Candida albicans; experiment: Antibiofilm activity against Candida albicans SC5314 preformed biofilms at 64 ug/ml incubated for 24 hrs by XTT reduction assay relative to control; format: functional; set-up: scale not given: the % may be the effect or the level left; details: dose 64 µg/ml
[33] = test system: Candida tropicalis; experiment: Antifungal activity against Candida tropicalis 8915 assessed as inhibition of fungal growth incubated for 48 hrs by microbroth dilution method; format: functional
[34] = test system: Cryptococcus neoformans; experiment: Antifungal activity against Cryptococcus neoformans 32,609 assessed as inhibition of fungal growth incubated for 72 hrs by microbroth dilution method; format: functional
[35] = test system: Candida parapsilosis; experiment: Antifungal activity against Candida parapsilosis 22019 assessed as inhibition of fungal growth incubated for 48 hrs by microbroth dilution method; format: functional; details: Lodderomyces parapsilosis
[36] = test system: [Candida] auris; experiment: Antifungal activity against Candida auris 891 assessed as inhibition of fungal growth at 0.5 ug/ml incubated for 48 hrs by spot assay; format: functional, organism-based; details: Candidozyma auris, dose 0.5 µg/ml
[37] = test system: Saccharomyces cerevisiae; experiment: Resistance index, ratio of MIC for recombinant Saccharomyces cerevisiae Y525 overexpressing CaMdr1 to MIC for recombinant Saccharomyces cerevisiae Y2411 overexpressing ScErg11; format: functional
[38] = test system: Pichia kudriavzevii; experiment: Antifungal activity against Candida krusei 4996 assessed as inhibition of fungal growth incubated for 48 hrs by microbroth dilution method; format: functional
[39] = test system: Nakaseomyces glabratus; experiment: Antifungal activity against Candida glabrata 537 assessed as inhibition of fungal growth at 0.5 ug/ml incubated for 48 hrs by spot assay; format: functional, organism-based; details: dose 0.5 µg/ml
[40] = test system: [Candida] auris; experiment: Antifungal activity against fluconazole-resistant Candida auris 891 assessed as inhibition of fungal growth incubated for 48 hrs by microbroth dilution method; format: functional; details: Candidozyma auris
[41] = test system: Candida albicans; experiment: Antifungal activity against fluconazole-resistant Candida albicans 904 assessed as inhibition of fungal growth at 0.5 ug/ml incubated for 48 hrs by spot assay; format: functional, organism-based; details: dose 0.5 µg/ml
[42] = test system: Saccharomyces cerevisiae; experiment: Antifungal activity against recombinant Saccharomyces cerevisiae Y2459 overexpressing CaErg11 CaCpr assessed as inhibition of fungal growth incubated for 48 hrs by microbroth dilution method; format: functional
[43] = Selectivity index, ratio of IC50 for HUVEC cells to MIC for Candida glabrata 537; format: toxicity; details: human, HUVEC cells versus Candida glabrata 537; read-out: Selectivity Index
[44] = test system: Candida albicans; experiment: Antifungal activity against Candida albicans SC5314 assessed as inhibition of fungal growth incubated for 48 hrs by microbroth dilution method; format: functional
[45] = test system: Candida albicans; experiment: Antibiofilm activity against Candida albicans SC5314 preformed biofilms at 4 ug/ml incubated for 24 hrs by XTT reduction assay relative to control; format: functional; set-up: scale not given: the % may be the effect or the level left; details: dose 4 µg/ml
[46] = test system: Saccharomyces cerevisiae; experiment: Antifungal activity against recombinant Saccharomyces cerevisiae Y2300 overexpressing ScErg11 assessed as inhibition of fungal growth incubated for 48 hrs by microbroth dilution method; format: functional
[47] = test system: Candida parapsilosis; experiment: Antifungal activity against Candida parapsilosis 22019 assessed as inhibition of fungal growth at 0.5 ug/ml incubated for 48 hrs by spot assay; format: functional, organism-based; details: dose 0.5 µg/ml
[48] = test system: Candida albicans; experiment: Antifungal activity against Candida albicans 10231 assessed as inhibition of fungal growth at 0.5 ug/ml incubated for 48 hrs by spot assay; format: functional, organism-based; details: dose 0.5 µg/ml
[49] = test system: Candida albicans; experiment: Antifungal activity against Candida albicans 10231 assessed as inhibition of fungal growth incubated for 48 hrs by microbroth dilution method; format: functional

With `OC(Cn1cncn1)(Cn1cncn1)c1ccc(F)cc1F` [FLUCONAZOLE] the MIC [1] was 8 µg/mL, the Activity [2] was “Active” and the MIC [3] was > 256 µg/mL. The MIC [4] was 8 µg/mL, the MIC [5] was > 256 µg/mL and the MIC [6] was 4 µg/mL. For the same molecule, the Activity [7] was “inactive”, the Activity [8] was “inactive” and the MIC [9] was > 256 µg/mL. The MIC [10] was 32 µg/mL, the MST [11] was 10 days and the “inhibition (INH)” value [12] was ~ 100%. For the same molecule, the MIC [13] was 32 µg/mL, the MIC [14] was 1 µg/mL (≈ 3.27 µM) and the MIC [15] was > 64 µg/mL. For the same molecule, the viability at 24 h, 128 ug/ml [16] was 43.7%, the Activity [17] was “Active” and the inhibition at 64 µg/mL [18] was 26.1%. For the same molecule, the MIC [19] was 4 µg/mL, the selectivity ratio [20] was 100 and the Activity [21] was “Active”. For the same molecule, the Activity [22] was “Active”, the MIC [23] was 8 µg/mL and the survival at 8 mg/kg [24] was 46.7%. The Activity [25] was 34.47%, the MIC [26] was > 64 µg/mL and the Activity [27] was “Active”. The MIC [28] was > 256 µg/mL, the MIC [29] was 1 µg/mL and the Activity [30] was “Active”. For the same molecule, the Activity [31] was “Active”, the Activity [32] was 33.39% and the MIC [33] was > 64 µg/mL. The MIC [34] was 2 µg/mL (≈ 6.53 µM), the MIC [35] was 4 µg/mL (≈ 13.1 µM) and the Activity [36] was “inactive”. For the same molecule, the Ratio [37] was 32, the MIC [38] was 64 µg/mL (≈ 209 µM) and the Activity [39] was “inactive”. The MIC [40] was > 256 µg/mL, the Activity [41] was “inactive” and the MIC [42] was 2 µg/mL. It also gave a selectivity ratio [43] of 50, an MIC [44] of 0.5 µg/mL (≈ 1.63 µM) and an Activity [45] of 31.38%. For the same molecule, the MIC [46] was 4 µg/mL, the Activity [47] was “inactive” and the Activity [48] was “inactive”. The MIC [49] was > 64 µg/mL.
Work on `C[C@@H](c1nc(-c2ccc(C#N)cc2)cs1)[C@](O)(Cn1cncn1)c1ccc(F)cc1F` [RAVUCONAZOLE] yielded an MIC [1] of 0.063 µg/mL, an MIC [3] of 1 µg/mL (≈ 2.29 µM) and an MIC [4] of 0.063 µg/mL. The MIC [5] was 16 µg/mL (≈ 36.6 µM), the MIC [6] was 0.063 µg/mL and the MIC [9] was 16 µg/mL (≈ 36.6 µM). The MIC [10] was 0.031 µg/mL, the MIC [13] was 0.125 µg/mL and the MIC [14] was ≤ 0.125 µg/mL. The MIC [15] was 0.25 µg/mL (≈ 0.571 µM), the MIC [19] was 0.031 µg/mL and the MIC [23] was 0.016 µg/mL. The MIC [26] was 32 µg/mL, the MIC [28] was 1 µg/mL (≈ 2.29 µM) and the MIC [29] was 0.008 µg/mL. For the same molecule, the MIC [33] was 4 µg/mL (≈ 9.14 µM), the MIC [34] was ≤ 0.125 µg/mL and the MIC [35] was ≤ 0.125 µg/mL. The MIC [38] was ≤ 0.125 µg/mL, the MIC [40] was 1 µg/mL (≈ 2.29 µM) and the MIC [42] was 0.016 µg/mL. The MIC [44] was 0.25 µg/mL (≈ 0.571 µM), the MIC [46] was 0.063 µg/mL and the MIC [49] was 16 µg/mL (≈ 36.6 µM).
